Values quoted from earlier work as cited in patent US20210002295A1, “SMALL MOLECULE DEGRADERS THAT RECRUIT DCAF15” (Dana-Farber Cancer Institute, Inc., priority 2017, published 2021).
pKd: −log10 of the molar value.

Molecular target: bromodomains of BET proteins
Settings: stated for small molecule BET inhibitors

For `Cc1sc2c(c1C)C(c1ccc(Cl)cc1)=N[C@@H](CC(=O)OC(C)(C)C)c1nnc(C)n1-2` [JQ1], the pKd is listed as about 8.00.
